Experimental data from publication PMC8963105, “A Novel Modulator of the Renin–Angiotensin System, Benzoylaconitine, Attenuates Hypertension by Targeting ACE/ACE2 in Enhancing Vasodilation and Alleviating Vascular Inflammation” (Frontiers in Pharmacology, 2022).

Legend:
ACE [1] = experiment: ACE protein expression in HUVECs (Western blot, immunofluorescence); assay type: cell-based, human; conditions: 24 h
Source text: Human umbilical vein endothelial cells (HUVECs) were isolated from umbilical cords as previously described ([Jaffe et al., 1973]). They were purchased from ATCC (cat# CRL-1444, Manassas, VA, United States) and cultured in endothelial cell medium (ECM, ScienCell, Carlsbad, CA, United States) supplemented with 5% FBS, 1% endothelial cell growth supplement, and 1% antibiotics (Sigma, St. Louis, MO, United States). Cells harvested between the third and tenth passages were used in the experiments. Cells were cultured until they were ∼80% confluent. […]
After treatment with different concentrations of BAC (Control, DMSO, 25, 50, and 100 μM, dissolved in 0.1% DMSO–DMEM) for 24 h, the cells were washed with PBS three times, fixed in 4% paraformaldehyde for 20 min, permeabilized with 0.3% Triton X-100 for 20 min, and then blocked with 5% BSA for 30 min at room temperature of 25°C. […] The samples were analyzed using a confocal laser scanning microscope (Zeiss LSM 510 META, Oberkochen, Germany).
(§1) The cell samples and tissue sample were collected and placed in ice rapidly. […] Protein concentration in cell lysates was measured using a Bio-Rad DC Protein Assay Kit […]. […]

ACE [2] = experiment: serum ACE by ELISA in SHRs after 14-day oral administration; assay type: in vivo, rat; conditions: oral 14 days
Source text: (§2) All three MDAs (BAC, BMC, and BHC) were purchased from Nature-Standard Co., Ltd. (Shanghai, China) and their purities were all over 98%. The anti-hypertensive effects of MDAs were studied in both acute and chronic experiments. The 16-week-old SHRs were used in animal experiments, and each group had six rats. In the acute experiment, drug administration was via i.v. injection. For i.v. injection, the animals were randomly assigned into four groups: vehicle (0.1% DMSO–0.9% salt solution, n = 6), low-dose group (0.6 mg kg^−1 body weight, n = 6), medium-dose group (2 mg kg^−1 body weight, n = 6), and high-dose group (6 mg kg^−1 body weight, n = 6). The drug was administered using a venous catheter. […] Blood pressure was recorded in real time.
(§3) Blood samples were collected from the left femoral artery of rats at the end point, followed by centrifugation at 1,000 × g for 15 min at 4°C. […] The concentrations of circulating ACE, ACE2, Ang I, Ang II, Ang (1–7), TNF-α, and IL-6 in serum were measured using the ELISA kits [ACE, cat#xy-R2401c, X-Y Biotechnology, Shanghai, China; ACE2, cat#xy-ACE2-Ra, X-Y Biotechnology; Ang I, cat#xy-E12541, X-Y Biotechnology; Ang II, cat#xy-R1430c, X-Y Biotechnology; Ang (1–7), cat#xy-Ang1-7-Ra, X-Y Biotechnology; TNF-α, cat#GM1149, Servicebio, Shanghai, China; IL-6, cat#GM1154, Servicebio] according to the manufacturer’s instructions. […]

ACE2 = experiment: serum ACE2 by ELISA in SHRs after 14-day oral administration; assay type: in vivo, rat; conditions: oral 14 days
Source text: as §2, §3

Ang I = experiment: serum Ang I by ELISA in SHRs after 14-day oral administration; assay type: in vivo, rat; conditions: oral 14 days
Source text: as §2, §3

total NO = total NO in serum of SHRs; assay type: in vivo, rat; conditions: oral 14 days, dose-dependent
Source text: as §2
Total NO levels in serum obtained from SHRs treated with vehicle, BAC, or captopril for 14 days were quantified by using total nitric oxide assay kit (Beyotime, Shanghai, China) as described previously. The absorbance was measured using a microplate reader (Thermo Fisher Scientific) at 540 nm and calculated according to the standard curve. […]

COX-2 = COX-2 expression in aorta of SHRs (Western blot); assay type: in vivo, rat; conditions: oral 14 days
Source text: as §2, with “catheter. In chronic experiments, the animals were randomly assigned into five groups: vehicle (5% Tween 80–0.9% salt solution, n = 6), captopril group (5 mg kg^−1 body weight, n = 6), low-dose group (3 mg kg^−1 body weight, n = 6), medium-dose group (10 mg kg^−1 body weight, n = 6), and high-dose group (30 mg kg^−1 body weight, n = 6). Oral administration with drug or 5% Tween 80–0.9% salt solution was carried out once a day, and continued for 14 days.” for “catheter.”
as §1

mice = tested on: mice; design: method as in Wada et al., 2005; conditions: ref Wada et al., 2005; cited from earlier work

Q: Which “protein expression of ACE” value (ACE [1]; HUVECs, 25, 50, 100 μM) does the source give for `CCN1CC2(COC)C(O)CC(OC)C34C5CC6(O)C(OC)C(O)C(O)(C5C6OC(=O)c5ccccc5)C(C(OC)C23)C14` (centres unmarked) [BAC, Benzoylaconitine] here?
A: Its value is “inhibit the expression of ACE”.

Q: And the ACE protein degradation (ACE [1]; HUVECs, BAC 100 μM with or without proteasome inhibitor MG132 20 or 40 nM)?
A: The ACE protein degradation was “promote ACE protein degradation”.

Q: And the “level of ACE in blood” value (ACE [2])?
A: Its value is “decreased”.

Q: And the “level of ACE2 in blood” value (ACE2)?
A: The value was “did not change”.

Q: What about the “level of Ang I in blood” value (Ang I) of the same molecule?
A: Its value is “did not change”.

Q: And the “total NO level in serum” value (total NO)?
A: Its value is “increase NO level”.

Q: What about the “expression of COX-2” value (COX-2) of the same molecule?
A: Its value is “downregulated”.

Q: What about the “oral median lethal dose (LD50)” value (mice) of the same molecule?
A: Its value is 1,500 mg kg^−1.
